Data: US20250325527A1, “KIF18A INHIBITION FOR TREATMENT OF CANCER” (AMGEN INC., priority 2022, published 2025)

Experiments:
[1] = tested on: breast and ovarian cancer cell lines (DNA barcoded human cancer cell lines); experiment: PRISM screen, 5-day cell growth assay of pooled DNA barcoded cancer cell lines; assay type: cell-based; conditions: TP53 MUT cell lines, 5 days
Procedure: FIG. 1 is a series of scatter plots of pooled barcoded cancer cell lines treated in a 5-day cell growth assay with DMSO or KIF18Ai C9 (8-point concentration range), relative abundance of unique cell line barcodes was measured to estimate cell viability. KIF18Ai C9 AUC values versus CIN features (whole genome doubling (WGD), ploidy, aneuploidy score (AS)) plus TP53 status in breast and ovarian cancer cell lines (n=58). Scatter plots show KIF18Ai C9 AUC versus CIN features plus TP53 status with mean AUC indicated for each group. Colored cell lines overlap with KIF18Ai C9 sensitivity in nonbarcoded screens. Dotted line indicates AUC value of 0.65. ** p=0.0037, *** p=0.0004 by unpaired t-test.
To investigate the anti-proliferative effects of KIF18A inhibitors, a PRISM (profiling relative inhibition simultaneously in mixtures) screen was conducted on a panel of DNA barcoded human cancer cell lines. Pooled cancer cell lines were treated with DMSO or increasing concentrations of KIF18A inhibitor, Compound C9, for 5 days, and then cell viability was determined by measuring the abundance for each unique DNA barcode. We divided the cell lines by CIN features (WGD, ploidy, aneuploidy score) and further subdivided them based on TP53 status. In the TP53^MUT cancer cell lines, we observed a significant enrichment for KIF18A inhibitor sensitivity in cell lines that were WGD+ with >2.1 ploidy (55%, 12 of 22 sensitive) relative to WGD− with ≤2.1 ploidy (21%, 4 of 19 sensitive) (p=0.0004).

HCC1806 cells [2] = experiment: mitotic duration and fate (slippage) by live-cell timelapse imaging of cells arrested with DMN; assay type: cell-based
Procedure: To define the capacity of KIF18Ai-resistant HCC1806 clonal lines to maintain the mitotic state, we arrested cells indefinitely in mitosis with the Eg5 inhibitor dimethylenastron (DMN) which causes spindle collapse and chronic SAC activation^28,29. We then monitored mitotic slippage by live-cell timelapse imaging.
Fluorescent cell lines were seeded into either 4-chamber, 35-mm glass-bottom culture dishes (Greiner), 4-well chamber slides (Ibidi), or 8-well chamber slides (Ibidi). The day of the experiment, cells were transferred to CO2-independent base medium (ThermoFischer) with the appropriate additives for each cell line and maintained at 37° C. in an environmental control station. Long-term time-lapse imaging was performed using a Deltavision Elite system (GE Healthcare) controlling a Scientific CMOS camera (pco.edge 5.5.). Images were acquired with an Olympus 40×1.4 NA oil objective. For general mitotic phenotypes, cells were treated as indicated, then images were captured every 5 min in 9×3 μm z-sections in respective fluorescent channels and by differential inference contrast. For CyclinB1-EYFP experiments, cells were treated as indicated, then images were captured every 2.5 min in 9×3 μm z-sections in respective fluorescent channels and by differential inference contrast. Phenotypic evaluation and intensity measurements were taken from maximum intensity projected 2D time-lapse images. Mitotic duration was calculated as the time taken from nuclear envelope breakdown to the onset of anaphase. Metaphase to anaphase duration was calculated as the time from the appearance of the last, uninterrupted metaphase plate to the onset of anaphase. Analysis of Cyclin B1-EYFP mitotic intensity was measured from NEBD through 30 min past anaphase using FIJI. Intensity traces were manually aligned to the metaphase to anaphase inflection point, then normalized in R. If traces never inflected, they were aligned to 30 min past NEBD.

HCC1806 cells [3] = experiment: 5-day MTT endpoint viability assay, HCC1806
Procedure: The following day, drugs were added as indicated and cells were cultured for 5 days. […] 100 μL 10% SDS, 0.01M HCl solution was then added to each well to dissolve the formazan crystals. Absorbance was measured with a spectrophotometer at 570 nm. % Viability=(Signal[sample]−Signal[DMN])/(Signal [DMSO]−Signal [DMN])×100 unless specifically noted. % Toxicity=100%−Viability. % Viability rescue=(Signal [sample, KIF18Ai]−Signal[WT, KIF18Ai])/(Signal[WT, DMSO]−Signal [WT, KIF18Ai])×100. Drug titration curves were derived using the equation for “[Inhibitor] vs. response−Variable slope (four-parameter)” in GraphPad Prism 7 for Mac OS X (GraphPad Software, La Jolla, USA).

[4] = tested on: panel of sensitive and insensitive cell lines (RPE1, MCF10A, HCT116, DLD1, MCF7, MDA-MB-157, HCC1806, HeLa, OVCAR-3, OVCAR-8); experiment: 5-day MTT endpoint viability assay, cell line panel; assay type: cell-based; conditions: sensitive cell lines co-treated with KIF18Ai and low doses of Reversine (30 nM, FIG. 9E)
Description: To investigate the determinants of KIF18A dependency in cancer, we used AM-1882, a highly specific small molecule KIF18A inhibitor (KIF18Ai) developed by Amgen Inc^21,23. Treatment with KIF18Ai causes stable binding of the KIF18A motor domain to microtubules^23, leading to the relocation of KIF18A in mitosis from kinetochores to spindle poles in all the cell lines tested (FIG. 8a and FIG. 15a). This mis-localization phenocopies the effect of KIF18A loss^21, likely by blocking KIF18A-induced stabilization of microtubule plus ends^16. We examined the effect of KIF18Ai on cell viability using a 5-day endpoint assay performed with non-transformed cells (RPE1 and MCF10A) and a panel of colon (HCT116, DLD1), breast (MCF7, MDA-MB-157, HCC1806), and ovarian (HeLa, OVCAR-3, OVCAR-8) cancer cell lines (FIG. 8b,c and FIG. 15b).

CC(C)(C)NS(=O)(=O)c1cccc(NC(=O)c2ccc(S(=O)(=O)NC(C)(C)C)cc2N2CCC3(CC2)CC3)c1 [Compound C9, 4-(N-(tert-butyl)sulfamoyl)-N-(3-(N-(tert-butyl)sulfamoyl)phenyl)-2-(6-azaspiro[2.5]octan-6-yl)benzamide]
cell lines sensitive to KIF18A inhibitor ([1]; WGD+ with >2.1 ploidy (12 of 22 sensitive)): 55%
cell lines sensitive to KIF18A inhibitor ([1]; WGD− with ≤2.1 ploidy (4 of 19 sensitive)): 21%
cell lines sensitive to KIF18A inhibitor ([1]; aneuploidy score >8 (16 of 34 sensitive)): 47%
cell lines sensitive to KIF18A inhibitor ([1]; aneuploidy score ≤8 (0 of 7 sensitive)): 0%

CC1(C)CC(=O)C2=C(C1)NC(=S)NC2c1cccc(O)c1 (stereo not drawn) [DMN, dimethylenastron]
slippage rate (HCC1806 cells [2]; Cyclin B1 knockout HCC1806): 93%
time spent in mitosis (HCC1806 cells [2]; Cyclin B1 knockout HCC1806): 11 h
rate of mitotic slippage (HCC1806 cells [2]; HSET knockout HCC1806): 27%
time in mitosis (HCC1806 cells [2]; HSET knockout HCC1806): 19 h
cell death (HCC1806 cells [2]; WT HCC1806): 75%
mitotic slippage (HCC1806 cells [2]; WT HCC1806): 25%
time in mitosis (average) (HCC1806 cells [2]; WT HCC1806): 25 h
rate of mitotic slippage (HCC1806 cells [2]; hypomorphic MAD1 HCC1806): 95%
time in mitosis (HCC1806 cells [2]; hypomorphic MAD1 HCC1806): 23 h

O=C1NC(=NCc2cccs2)S/C1=C\c1ccc2ncccc2c1 [RO-3306]
rescue of viability in KIF18Ai-treated cells (HCC1806 cells [3]; sub-saturating concentrations of RO-3306): robust rescue of viability

c1nc2nc(Nc3ccc(N4CCOCC4)cc3)nc(NC3CCCCC3)c2[nH]1 [Reversine]
rescue of KIF18Ai toxicity [4]: rescued KIF18Ai toxicity
effect on cells (HCC1806 cells [3]; higher concentrations of Reversine): toxic to cells
rescue of KIF18Ai toxicity (HCC1806 cells [3]; low doses of Reversine, WT and UBE2S overexpressing HCC1806 treated with KIF18Ai): potent rescue of KIF18Ai toxicity
time to exit mitosis (all cells) (HCC1806 cells [2]; SAC function abolished with Reversine, compared with DMN arrest): less than an hour
